Results taken from US20200360520A1, “USE OF RIFAMYCIN-QUINOLIZIDONE COUPLING MOLECULE” (priority 2019, published 2020).
≈ marks a conversion by molar mass, not a printed value. Like-named read-outs stand apart in the source and are kept apart here.

Legend:
Type in all cases: cell-based
Mycobacterium avium [1] = test: MIC by micro broth dilution method (resazurin microtiter assay); conditions: read-out: Minimum Inhibitory Concentration (MIC)
Mycobacterium kansasii [2] = test: as above; conditions: Mycobacterium kansasii, Mycobacterium kansasii, read-out: Minimum Inhibitory Concentration (MIC)
[3] = tested on: Mycobacterium massiliense; test: as above; conditions: Mycobacteroides abscessus, MH Culture Medium, read-out: Minimum Inhibitory Concentration (MIC)
[4] = tested on: Mycobacterium intracellulare; test: as above; conditions: Mycobacterium intracellulare, MH Culture Medium, read-out: Minimum Inhibitory Concentration (MIC)
Mycobacterium fortuitum = test: as above; conditions: Mycolicibacterium fortuitum, MH Culture Medium, read-out: Minimum Inhibitory Concentration (MIC)
Mycobacterium abscessus [5] = test: as above; conditions: Mycobacteroides abscessus, read-out: Minimum Inhibitory Concentration (MIC)
Mycobacterium kansasii [6] = test: MBC test (plating on agar, CFU count); conditions: Mycobacterium kansasii, Mycobacterium kansasii, read-out: Minimum Bactericidal Concentration (MBC)
Mycobacterium avium [7] = test: MBC test (plating on agar, CFU count); conditions: Mycobacterium avium, read-out: Minimum Bactericidal Concentration (MBC)
Mycodacterium chelonei = test: MIC by micro broth dilution method (resazurin microtiter assay); conditions: MH Culture Medium; Chelonei (standard strain); read-out: Minimum Inhibitory Concentration (MIC)
Mycobacterium abscessus [8] = test: MBC test (plating on agar, CFU count); conditions: for Minimum Bactericidal Concentration (MBC): MH Culture Medium; for MBC: Mycobacteroides abscessus, 7H9 Culture Medium, read-out: Minimum Bactericidal Concentration (MBC)
[9] = 7H9 Broth, Mycobacterium avium Smooth
[10] = MH Broth, Mycobacterium avium Smooth
[11] = MH Culture Medium, Avium (standard strain)
[12] = MH Culture Medium, clinically isolated strain Avium (S31)
[13] = MH Culture Medium, clinically isolated strain Avium (S123)
[14] = MH Culture Medium, clinically isolated strain Avium (S559)
[15] = MH Culture Medium, clinically isolated strain Avium (S568)
[16] = MH Culture Medium, clinically isolated strain Avium (S577)
[17] = MH Culture Medium, clinically isolated strain Avium (S597)
[18] = MH Culture Medium, clinically isolated strain Avium (S602)
[19] = MH Culture Medium, Kansasii (standard strain)
[20] = MH Culture Medium, clinically isolated strain Kansasii (S9)
[21] = MH Culture Medium, clinically isolated strain Kansasii (S199)
[22] = MH Culture Medium, clinically isolated strain Kansasii (S520)
[23] = MH Culture Medium, clinically isolated strain Kansasii (S609)
[24] = clinically isolated strain Massiliense (D10)
[25] = clinically isolated strain Massiliense (D14)
[26] = clinically isolated strain Massiliense (D18)
[27] = Intracellulare (standard strain)
[28] = clinically isolated strain Intracellulare (S90)
[29] = clinically isolated strain Intracellulare (S261)
[30] = clinically isolated strain Intracellulare (S269)
[31] = clinically isolated strain Intracellulare (S290)
[32] = clinically isolated strain Intracellulare (S291)
[33] = clinically isolated strain Intracellulare (S298)
[34] = clinically isolated strain Intracellulare (S541)
[35] = clinically isolated strain Intracellulare (S623)
[36] = clinically isolated strain Intracellulare (ZPS)
[37] = clinically isolated strain intracellulare (S442)
[38] = clinically isolated strain Fortuitum (S103)
[39] = clinically isolated strain Fortuitum (S111)
[40] = 7H9 Culture Medium, Mycobacterium avium Smooth
[41] = MH Culture Medium, Mycobacterium avium Smooth

SMILES: CO[C@H]1/C=C/O[C@@]2(C)Oc3c(C)c(O)c4c(O)c(c(/C=N/N5CCN(C)CC5)c(O)c4c3C2=O)NC(=O)/C(C)=C\C=C\[C@H](C)[C@H](O)[C@@H](C)[C@@H](O)[C@@H](C)[C@H](OC(C)=O)[C@@H]1C [Rifampicin, rifampicin]
- MIC (Mycobacterium avium [1]; 7H9 Broth, Mycobacterium avium Rough): 8 µg/mL (≈ 9.72 µM)
- MIC (Mycobacterium avium [1]; [9]): 0.5 µg/mL (≈ 0.608 µM)
- MIC (Mycobacterium avium [1]; MH Broth, Mycobacterium avium Rough): 8 µg/mL (≈ 9.72 µM)
- MIC (Mycobacterium avium [1]; [10]): 1 µg/mL (≈ 1.22 µM)
- MIC (Mycobacterium avium [1]; [11]): 0.25 µg/mL (≈ 0.304 µM)
- MIC (Mycobacterium avium [1]; [12]): 0.0625 µg/mL (≈ 0.0759 µM)
- MIC (Mycobacterium avium [1]; [13]): 8 µg/mL (≈ 9.72 µM)
- MIC (Mycobacterium avium [1]; [14]): 0.125 µg/mL (≈ 0.152 µM)
- MIC (Mycobacterium avium [1]; [15]): 4 µg/mL (≈ 4.86 µM)
- MIC (Mycobacterium avium [1]; [16]): 0.125 µg/mL (≈ 0.152 µM)
- MIC (Mycobacterium avium [1]; [17]): 8 µg/mL (≈ 9.72 µM)
- MIC (Mycobacterium avium [1]; [18]): 2 µg/mL (≈ 2.43 µM)
- MIC (Mycobacterium kansasii [2]; 7H9 Broth): 16 µg/mL (≈ 19.4 µM)
- MIC (Mycobacterium kansasii [2]; MH Broth): 16 µg/mL (≈ 19.4 µM)
- MIC (Mycobacterium kansasii [2]; [19]): 0.125 µg/mL (≈ 0.152 µM)
- MIC (Mycobacterium kansasii [2]; [20]): 0.125 µg/mL (≈ 0.152 µM)
- MIC (Mycobacterium kansasii [2]; [21]): 0.0625 µg/mL (≈ 0.0759 µM)
- MIC (Mycobacterium kansasii [2]; [22]): 0.0625 µg/mL (≈ 0.0759 µM)
- MIC (Mycobacterium kansasii [2]; [23]): 0.0625 µg/mL (≈ 0.0759 µM)
- MIC [3, 24]: > 64 µg/mL
- MIC [3, 25]: > 64 µg/mL
- MIC [3, 26]: > 64 µg/mL
- MIC [4, 27]: 0.25 µg/mL (≈ 0.304 µM)
- MIC [4, 28]: 8 µg/mL (≈ 9.72 µM)
- MIC [4, 29]: 16 µg/mL (≈ 19.4 µM)
- MIC [4, 30]: 4 µg/mL (≈ 4.86 µM)
- MIC [4, 31]: 4 µg/mL (≈ 4.86 µM)
- MIC [4, 32]: 4 µg/mL (≈ 4.86 µM)
- MIC [4, 33]: 4 µg/mL (≈ 4.86 µM)
- MIC [4, 34]: 16 µg/mL (≈ 19.4 µM)
- MIC [4, 35]: 8 µg/mL (≈ 9.72 µM)
- MIC [4, 36]: 2 µg/mL (≈ 2.43 µM)
- MIC [4, 37]: 2 µg/mL (≈ 2.43 µM)
- MIC (Mycobacterium fortuitum; Fortuitum (standard strain)): > 64 µg/mL
- MIC (Mycobacterium fortuitum; [38]): > 64 µg/mL
- MIC (Mycobacterium fortuitum; [39]): 64 µg/mL (≈ 77.8 µM)
- MIC (Mycobacterium abscessus [5]; 7H9 Broth): > 64 µg/mL
- MIC (Mycobacterium abscessus [5]; MH Broth): > 64 µg/mL
- MBC (Mycobacterium kansasii [6]; 7H9 Culture Medium): 4 µg/mL (≈ 4.86 µM)
- MBC (Mycobacterium kansasii [6]; MH Culture Medium): 4 µg/mL (≈ 4.86 µM)
- MBC (Mycobacterium avium [7]; 7H9 Culture Medium, Mycobacterium avium Rough): > 64 µg/mL
- MBC (Mycobacterium avium [7]; [40]): 4 µg/mL (≈ 4.86 µM)
- MBC (Mycobacterium avium [7]; [41]): 4 µg/mL (≈ 4.86 µM)
- MIC (Mycodacterium chelonei): > 64 µg/mL
- Minimum Bactericidal Concentration (MBC) (Mycobacterium abscessus [8]): >64 µg/mL
- MBC (Mycobacterium abscessus [8]): > 64 µg/mL

SMILES: Cc1ncc([N+](=O)[O-])n1CCO [Metronidazole, metronidazole]
- MIC (Mycobacterium avium [1]; [9]): > 64 µg/mL
- MIC (Mycobacterium avium [1]; [10]): > 64 µg/mL
- MIC (Mycobacterium avium [1]; [11]): 8 µg/mL (≈ 46.7 µM)
- MIC (Mycobacterium avium [1]; [12]): 16 µg/mL (≈ 93.5 µM)
- MIC (Mycobacterium avium [1]; [13]): 8 µg/mL (≈ 46.7 µM)
- MIC (Mycobacterium avium [1]; [14]): 8 µg/mL (≈ 46.7 µM)
- MIC (Mycobacterium avium [1]; [15]): 8 µg/mL (≈ 46.7 µM)
- MIC (Mycobacterium avium [1]; [16]): 8 µg/mL (≈ 46.7 µM)
- MIC (Mycobacterium avium [1]; [17]): 8 µg/mL (≈ 46.7 µM)
- MIC (Mycobacterium avium [1]; [18]): 32 µg/mL (≈ 187 µM)
- MIC (Mycobacterium kansasii [2]; 7H9 Broth): > 64 µg/mL
- MIC (Mycobacterium kansasii [2]; MH Broth): > 64 µg/mL
- MIC (Mycobacterium kansasii [2]; [19]): 8 µg/mL (≈ 46.7 µM)
- MIC (Mycobacterium kansasii [2]; [20]): 8 µg/mL (≈ 46.7 µM)
- MIC (Mycobacterium kansasii [2]; [21]): 8 µg/mL (≈ 46.7 µM)
- MIC (Mycobacterium kansasii [2]; [22]): 8 µg/mL (≈ 46.7 µM)
- MIC (Mycobacterium kansasii [2]; [23]): 8 µg/mL (≈ 46.7 µM)
- MIC [3, 24]: 16 µg/mL (≈ 93.5 µM)
- MIC [3, 25]: 16 µg/mL (≈ 93.5 µM)
- MIC [3, 26]: 8 µg/mL (≈ 46.7 µM)
- MIC [4, 27]: 8 µg/mL (≈ 46.7 µM)
- MIC [4, 28]: 16 µg/mL (≈ 93.5 µM)
- MIC [4, 29]: 16 µg/mL (≈ 93.5 µM)
- MIC [4, 30]: 16 µg/mL (≈ 93.5 µM)
- MIC [4, 31]: 8 µg/mL (≈ 46.7 µM)
- MIC [4, 32]: 8 µg/mL (≈ 46.7 µM)
- MIC [4, 33]: 16 µg/mL (≈ 93.5 µM)
- MIC [4, 34]: 16 µg/mL (≈ 93.5 µM)
- MIC [4, 35]: 8 µg/mL (≈ 46.7 µM)
- MIC [4, 36]: 8 µg/mL (≈ 46.7 µM)
- MIC [4, 37]: 8 µg/mL (≈ 46.7 µM)
- MIC (Mycobacterium fortuitum; Fortuitum (standard strain)): 16 µg/mL (≈ 93.5 µM)
- MIC (Mycobacterium fortuitum; [38]): 8 µg/mL (≈ 46.7 µM)
- MIC (Mycobacterium fortuitum; [39]): 16 µg/mL (≈ 93.5 µM)
- MIC (Mycobacterium abscessus [5]; 7H9 Broth): > 64 µg/mL
- MIC (Mycobacterium abscessus [5]; MH Broth): > 64 µg/mL
- MBC (Mycobacterium kansasii [6]; 7H9 Culture Medium): > 64 µg/mL
- MBC (Mycobacterium kansasii [6]; MH Culture Medium): > 64 µg/mL
- MBC (Mycobacterium avium [7]; [40]): > 64 µg/mL
- MBC (Mycobacterium avium [7]; [41]): > 64 µg/mL
- MIC (Mycodacterium chelonei): 16 µg/mL (≈ 93.5 µM)
- Minimum Bactericidal Concentration (MBC) (Mycobacterium abscessus [8]): >64 µg/mL
- MBC (Mycobacterium abscessus [8]): > 64 µg/mL
